In PubChem BioAssay (NCI) one finds TGI and GI50 data, which are given here for 17 compounds.

Common to all, as to experiment: NCI-60 cell line screen, 48 h
Test [1] deals with HCT-116 colon.
In test [2] the test system is HCT-15 colon.
The subject of test [3] is M14 melanoma.
Test [4] has as its system HCC-2998 colon.
In test [5] the test system is HT29 colon.
In test [6] the test system is NCI-H23 lung.
Test [7] has as its system NCI-H522 lung.
Test [8] has as its system RXF 393 renal.
For test [9], the system named is OVCAR-4 ovarian.
Test [10] has as its system MDA-MB-435.

SMILES strings stand for the structures. Several values for one entry are separate records, joined by “and”; a condition that tells them apart may be missing. Equal values may be shown once.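 In this assay, cells in 96-well plates receive the compound at five concentrations for 48 hours. Endpoints are linearly interpolated between the surrounding concentrations. Here, GI50 denotes the concentration required for 50% inhibition of growth. TGI marks complete inhibition of growth.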

For the compound `COc1c2c(c(CC=C(C)C)c3oc(=O)c(-c4ccc(O)cc4)c(O)c13)OC(C)(C)C=C2`, the TGI in test [1] was 37.5 µM; in test [2] it was 60.7 µM; in test [3], 73.3 µM; in test [4] it was 48.1 µM; in test [5] it was greater than 100 µM; in test [6] it was greater than 100 µM. The TGI came to 62.9 µM in test [7], 12.4 µM in [8], 58 µM in test [9] and 45.7 µM in [10].

With `CCOc1ccc2nc(-c3cccc(OCC(=O)NC(C)C)c3)nc(Nc3ccc(-c4cn[nH]c4)cc3)c2c1`, the GI50 in test [1] was 0.783 µM; in [2], 0.834 µM; in test [3] it was 1.22 µM; in test [4] it was 1.45 µM; in test [5], 0.751 µM; in test [6] it was 1.29 µM. Further, the GI50 in [7] was 0.62 µM; in test [8], 0.401 µM; in test [9], 1.53 µM; in test [10], 0.485 µM. For the same compound, the TGI in test [1] came out at 3.18 µM; in [2], 3.69 µM; in test [3], 10.5 µM; in test [4] it was 7.91 µM; in test [5], 5.09 µM; in test [6], 10.2 µM. For the same compound, the TGI was 3.33 µM in [7], 2.16 µM in [8], 3.52 µM in [9] and 3.81 µM in test [10].

As for `C[n+]1c2ccccc2c(Nc2ccc(NS(=O)(=O)CCCCN=C(N)N)cc2)c2ccc(N)cc21`, the GI50 in test [1] was 1.49 µM; in test [2], 50.9 µM; in test [3] it was 4.14 µM; in test [4], 8.97 µM; in [5], 1.02 µM; in [6], 0.152 µM. Further, the GI50 is 2.03 µM in [7], 15.7 µM in test [8], 5.4 µM in [9] and 20.4 µM in test [10]. Besides, the TGI is greater than 100 µM in test [1]; greater than 100 µM in test [2]; greater than 100 µM in test [3]; greater than 100 µM in [4]; 84.5 µM in test [5]; 90.4 µM in test [6]. In addition, the TGI in [7] was 25.6 µM; in test [8], greater than 70.8 µM; in [9] it was greater than 100 µM; in test [10], greater than 100 µM.

As for `Fc1cccc(CSc2ncnc3c2ncn3C2CCCS2)c1` (stereo not drawn), the TGI was 26.3 µM in [1]; greater than 100 µM in test [2]; 33.7 µM in test [3]; 42.2 µM in test [4]; 32.7 µM in test [5]; 62.1 µM in test [6]. Further, the TGI in [7] worked out at 44 µM; in test [8], 92.2 µM; in test [9] it was 83.1 µM; in [10], 38.4 µM.

For `CC(=O)OCc1ccc(O)c(C=O)c1`, the TGI in [1], in test [2], in test [3], in test [4], in [5] and in test [6] was greater than 100 µM in each case. Also, the TGI in test [7], in test [8], in [9] and in test [10] was greater than 100 µM in each case.

In the case of `c1ccc(Nn2c(CCCCCCCCc3nnc(COc4ccccc4)n3Nc3ccccc3)nnc2COc2ccccc2)cc1`, the GI50 in test [1] was 51.7 µM; in test [2], 9.88 µM and 5.62 µM; in test [3], 6.24 µM and 4.23 µM; in test [4] it was 16.2 µM and 15.7 µM; in test [5], 41.9 µM; in test [6] it was 37.2 µM and 76.8 µM. Besides, the GI50 was 157 µM in test [8]; 25.8 µM and 88.1 µM in test [9]; 5.34 µM and 11.9 µM in [10]. Further, the TGI is greater than 300 µM in test [1]; greater than 300 µM in test [2]; > 60.1 µM and 50.2 µM in [3]; > 72.6 µM and 186 µM in test [4]; greater than 300 µM in test [5]; greater than 300 µM in test [6]. Also, the TGI in [7] was greater than 91.8 µM; in [8], 98 µM and > 300 µM; in test [9], greater than 300 µM; in test [10], greater than 300 µM.

`Oc1ccc2ccccc2c1C1NN=C(c2ccccc2)S1` (stereo not drawn): the GI50 in test [1] was 0.408 µM; in test [2] it was 0.399 µM; in test [3], 0.279 µM; in test [4], 0.353 µM; in [5] it was 0.724 µM; in test [6], 1.26 µM. Also, the GI50 in [7] is 0.307 µM; in test [8], 0.812 µM; in test [9] it was 0.515 µM; in test [10], 0.632 µM. Besides, the TGI was greater than 34.4 µM in test [1]; greater than 50.8 µM in test [2]; 0.819 µM in [3]; 16.6 µM in test [4]; 40 µM in [5]; 48.7 µM in test [6]. Besides, the TGI in test [7] is 13.5 µM; in [8], 20 µM; in test [9] it was greater than 71.3 µM; in [10], 42.4 µM.

As for `COc1ccc2c(c1)c1nc3cc(C)c(C)cc3nc1n2CCN(C)C`, the GI50 was 0.354 µM in [1]; 0.417 µM in test [2]; 1.1 µM in test [3]; 1.07 µM in [4]; 0.529 µM in test [5]; 1.02 µM in test [6]. The GI50 in test [7] is 0.582 µM; in test [8], 1.22 µM; in test [9], 1.03 µM; in [10] it was 1.09 µM. Besides, the TGI in [1] was 1.64 µM; in test [2], 1.77 µM; in test [3], 2.57 µM; in [4], 2.58 µM; in test [5] it was 1.94 µM; in [6], 2.88 µM. Moreover, the TGI turned out to be 2.8 µM in [7], 2.88 µM in [8], 2.43 µM in [9] and 2.51 µM in test [10].

Regarding `CC(=O)OC1CC[C@@]2(C)C(CC[C@]3(C)C2CC=C2[C@@H]4CC(C)(C)CCC4(C)CCC23C)[C@@]1(C)C(=O)O` (stereo partly drawn), the TGI stood at 46.9 µM in test [1]; 28.5 µM in test [2]; 46.5 µM in test [3]; 35.8 µM in test [4]; 38.9 µM in test [5]; 43.9 µM in [6]. Further, the TGI in test [7] came to 22.6 µM; in [8], 36.9 µM; in test [9], 40.2 µM; in test [10], 44.1 µM.

With `N#Cc1ccc(C2C3=C(CCCC3=O)OC3=C2C(=O)c2ccccc2C3=O)cc1` (stereo not drawn), the GI50 is 0.48 µM in test [1]; 1.6 µM in test [2]; 1.71 µM in [3]; 3 µM in test [4]; 2.91 µM in test [5]; 1.25 µM in [6]. Besides, the GI50 in test [7] was 1.99 µM; in test [8], 1.86 µM; in test [9], 0.265 µM; in test [10] it was 0.216 µM. Moreover, the TGI in test [1] was 2.11 µM; in test [2] it was 3.71 µM; in test [3] it was 3.37 µM; in test [4], 8.38 µM; in [5] it was 8.04 µM; in test [6], 5.03 µM. For the same compound, the TGI in test [7] was determined as 4.31 µM; in test [8] it was 3.59 µM; in test [9] it was 1.07 µM; in [10], 0.444 µM.

On to `C[C@]1(C(=O)O)N[C@H](C(=O)O)CS1`, for which the GI50 is greater than 1000 µM in test [1]; greater than 1000 µM in test [2]; greater than 1000 µM in test [3]; 921 µM in [4]; greater than 1000 µM in [5]; greater than 1000 µM in test [6]. In addition, the GI50 in test [7], in test [8], in [9] and in [10] was greater than 1000 µM each time. Also, the TGI in test [1], in [2], in [3], in [4], in test [5] and in test [6] was greater than 1000 µM in each case. Moreover, the TGI in [7], in test [8], in [9] and in test [10] was greater than 1000 µM each time.

With `CC(C)[NH-].CC(C)[NH-].O.O.[Cl][Pt+2][Cl]`, the GI50 was 20.6 µM in test [1]; 35.7 µM in test [2]; 37.5 µM in test [3]; 87.9 µM in test [4]; 12.7 µM in [5]; 30.8 µM in test [6]. The GI50 is 20.4 µM in test [7], 26.6 µM in test [8], 28.7 µM in [9] and 26 µM in [10]. The TGI in test [1] came to 69.3 µM; in [2], 208 µM; in test [3] it was 139 µM; in test [4], 220 µM; in test [5], 83.8 µM; in test [6], 183 µM. Further, the TGI in [7] turned out to be 74.2 µM; in test [8] it was 137 µM; in [9], 106 µM; in [10], 76.2 µM.

For `Clc1ccc(C(c2ccc(Cl)cc2)N2CCNCC2)cc1`, the TGI was found to be 3.84 µM in test [1]; 8.79 µM in test [2]; 3.39 µM in test [3]; 3.05 µM in test [4]; 4.51 µM in [5]; 21.6 µM in test [6]. Further, the TGI in test [7] is 3.46 µM; in test [8] it was 9.75 µM; in [9], 6.95 µM; in test [10] it was 3.63 µM.

For `N#C/C(=C\Nc1ccccn1)C(=O)c1ccco1`, the TGI in test [1], in test [2], in [3], in test [4], in [5] and in test [6] was greater than 100 µM in each case. Moreover, the TGI in test [7], in test [8], in [9] and in test [10] was greater than 100 µM in each case.

As for `COc1cc2c(cc1OC)-c1ccc3cc4c(cc3c1N(CCN(C)C)C2)OCO4`, the GI50 was 0.411 µM in test [1]; 4.09 µM in test [2]; 0.43 µM in [3]; 1.29 µM in test [4]; 0.265 µM in test [5]; 0.393 µM in test [6]. Also, the results for the GI50 in [7], in test [8] and in [9] were 0.188 µM, 0.848 µM and 0.911 µM, respectively. In addition, the TGI came to 1.83 µM in [1]; 17.6 µM in test [2]; 4.85 µM in test [3]; 2.87 µM in [4]; 1.64 µM in test [5]; 2.96 µM in [6]. The TGI is 1.56 µM in test [7], 2.89 µM in [8], 13.3 µM in [9] and 17.6 µM in test [10].

Consider `C[C@@H](NC(=O)[C@@H](CC(=O)N1CCC(N2CCCCC2)CC1)N1C(=O)[C@@H](N2C(=O)OC[C@@H]2c2ccccc2)[C@H]1/C=C/c1cccc(Cl)c1)c1ccccc1`, for which the GI50 is 1.97 µM in [1]; 2.56 µM in [2]; 1.75 µM in [3]; 1.99 µM in test [4]; 2.78 µM in test [5]; 3.85 µM in test [6]. In addition, the GI50 in [7] is 1.79 µM; in [8], 2.15 µM; in test [9], 10.5 µM; in test [10] it was 1.64 µM. Also, the TGI is 4.11 µM in test [1]; 7.74 µM in test [2]; 3.37 µM in [3]; 4.08 µM in test [4]; 7.95 µM in test [5]; 15.5 µM in test [6]. Moreover, the TGI was 4.14 µM in test [7], 3.98 µM in test [8], 24.8 µM in [9] and 3.17 µM in test [10].

As to `COc1ccc2c3c(c4ccccc4cc13)C(=O)N(CCN(C)CCN)C2=O`, the GI50 in test [1] was 0.0312 µM; in test [2], 0.0453 µM; in [3], 0.0599 µM; in test [4], 0.182 µM; in test [5], 0.114 µM; in test [6] it was 0.0902 µM. The GI50 in [7] is 0.0742 µM; in test [8], 0.259 µM; in [9], 0.299 µM; in test [10], 0.343 µM. In addition, the TGI was determined as 1.17 µM in test [1]; 1.01 µM in test [2]; 1.32 µM in test [3]; 1.65 µM in test [4]; 1.13 µM in test [5]; 1.28 µM in test [6]. In addition, the TGI in test [7] turned out to be 1.23 µM; in [8] it was 1.29 µM; in test [9] it was 1.7 µM; in test [10], 1.71 µM.
